Assay results: PubChem BioAssay AID2060906 (Molecular Pharmacology Branch, DTP, NCI, 2025)
Blank lines part the entries; values can stand above or below the compound they belong to.

Test system: 485176-168-R4-J1-PDC complex spheroid growth
Assay: Anticancer human tumor 485176-168-R4-J1-PDC patient-derived pancreatic adenocarcinoma cell line growth inhibition [RAS]
Settings: for IC50: curve of first compound; for viability, T/C: stronger effect = lower value
In short: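 Tumour cells grown as complex spheroids with HUVEC endothelial cells and mesenchymal stem cells, treated with RAS pathway inhibitor combinations. Each agent spans half-log steps from near clinical Cmax, or 10 microM where Cmax is unknown.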

[1] = second compound 0.000949 µM, first compound 0.0316 µM
[2] = second compound 0.000949 µM, first compound 0.1 µM
[3] = second compound 0.000949 µM, first compound 0.316 µM
[4] = second compound 0.000949 µM, first compound 1 µM
[5] = second compound 0.003 µM, first compound 0.0316 µM
[6] = second compound 0.003 µM, first compound 0.1 µM
[7] = second compound 0.003 µM, first compound 0.316 µM
[8] = second compound 0.003 µM, first compound 1 µM
[9] = second compound 0.00949 µM, first compound 0.0316 µM
[10] = second compound 0.00949 µM, first compound 0.1 µM
[11] = second compound 0.00949 µM, first compound 0.316 µM
[12] = second compound 0.00949 µM, first compound 1 µM
[13] = second compound 0.03 µM, first compound 0.0316 µM
[14] = second compound 0.03 µM, first compound 0.1 µM
[15] = second compound 0.03 µM, first compound 0.316 µM
[16] = second compound 0.03 µM, first compound 1 µM
[17] = second compound 0.0949 µM, first compound 0.0316 µM
[18] = second compound 0.0949 µM, first compound 0.1 µM
[19] = second compound 0.0949 µM, first compound 0.316 µM
[20] = second compound 0.0949 µM, first compound 1 µM
[21] = second compound 0.3 µM, first compound 0.0316 µM
[22] = second compound 0.3 µM, first compound 0.1 µM
[23] = second compound 0.3 µM, first compound 0.316 µM
[24] = second compound 0.3 µM, first compound 1 µM
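Further: spheroids exposed to compounds for seven days before readout.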
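Wherever viability, T/C is given: luminescence viability expressed relative to DMSO vehicle wells set as 100%.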

IC50 (second compound 0.000949 µM): < 31.6 nM
IC50 (second compound 0.003 µM): < 31.6 nM
IC50 (second compound 0.00949 µM): < 31.6 nM
IC50 (second compound 0.03 µM): < 31.6 nM
IC50 (second compound 0.0949 µM): < 31.6 nM
IC50 (second compound 0.3 µM): < 31.6 nM
SMILES: CC(=O)OC12COC1CC(O)C1(C)C(=O)C(O)C3=C(C)C(OC(=O)C(O)C(NC(=O)OC(C)(C)C)c4ccccc4)CC(O)(C(OC(=O)c4ccccc4)C21)C3(C)C (centres undefined) + CCn1c(-c2cc(N3CCN(C)CC3)cnc2C(C)OC)c2c3cc(ccc31)-c1csc(n1)CC(NC(=O)C1CC1C)C(=O)N1CCCC(N1)C(=O)OCC(C)(C)C2
viability, T/C [1]: 16.7%
viability, T/C [2]: 15.2%
viability, T/C [3]: 13.1%
viability, T/C [4]: 13.9%
viability, T/C (second compound 0.000949 µM, first compound 3.16 µM): 15.6%
viability, T/C (second compound 0.000949 µM, first compound 10 µM): 19.6%
viability, T/C [5]: 14.1%
viability, T/C [6]: 13.2%
viability, T/C [7]: 10.9%
viability, T/C [8]: 15.5%
viability, T/C (second compound 0.003 µM, first compound 3.16 µM): 13.1%
viability, T/C (second compound 0.003 µM, first compound 10 µM): 17.9%
viability, T/C [9]: 17.2%
viability, T/C [10]: 12.8%
viability, T/C [11]: 12.7%
viability, T/C [12]: 12.8%
viability, T/C (second compound 0.00949 µM, first compound 3.16 µM): 13.2%
viability, T/C (second compound 0.00949 µM, first compound 10 µM): 20.1%
viability, T/C [13]: 12.3%
viability, T/C [14]: 13.4%
viability, T/C [15]: 13.8%
viability, T/C [16]: 10.8%
viability, T/C (second compound 0.03 µM, first compound 3.16 µM): 16.5%
viability, T/C (second compound 0.03 µM, first compound 10 µM): 21%
viability, T/C [17]: 14.2%
viability, T/C [18]: 11.9%
viability, T/C [19]: 11.8%
viability, T/C [20]: 9.97%
viability, T/C (second compound 0.0949 µM, first compound 3.16 µM): 14.9%
viability, T/C (second compound 0.0949 µM, first compound 10 µM): 15.9%
viability, T/C [21]: 15.5%
viability, T/C [22]: 13.1%
viability, T/C [23]: 9.69%
viability, T/C [24]: 12.8%
viability, T/C (second compound 0.3 µM, first compound 3.16 µM): 15.8%
viability, T/C (second compound 0.3 µM, first compound 10 µM): 14.7%

IC50 (second compound 0.000949 µM): 17 nM
IC50 (second compound 0.003 µM): 17.4 nM
IC50 (second compound 0.00949 µM): 18.2 nM
IC50 (second compound 0.03 µM): 12.5 nM
IC50 (second compound 0.0949 µM): 14.4 nM
IC50 (second compound 0.3 µM): 19.1 nM
SMILES: Nc1ccn(C2OC(CO)C(O)C2(F)F)c(=O)n1 (centres undefined) + CCn1c(-c2cc(N3CCN(C)CC3)cnc2C(C)OC)c2c3cc(ccc31)-c1csc(n1)CC(NC(=O)C1CC1C)C(=O)N1CCCC(N1)C(=O)OCC(C)(C)C2
viability, T/C (second compound 0.000949 µM, first compound 0.00316 µM): 100%
viability, T/C (second compound 0.000949 µM, first compound 0.01 µM): 73.4%
viability, T/C [1]: 23.1%
viability, T/C [2]: 9.57%
viability, T/C [3]: 11.2%
viability, T/C [4]: 11.5%
viability, T/C (second compound 0.003 µM, first compound 0.00316 µM): 94%
viability, T/C (second compound 0.003 µM, first compound 0.01 µM): 80.6%
viability, T/C [5]: 17.1%
viability, T/C [6]: 6.87%
viability, T/C [7]: 8.05%
viability, T/C [8]: 13.2%
viability, T/C (second compound 0.00949 µM, first compound 0.00316 µM): 79.7%
viability, T/C (second compound 0.00949 µM, first compound 0.01 µM): 86.2%
viability, T/C [9]: 19.7%
viability, T/C [10]: 7.74%
viability, T/C [11]: 10.7%
viability, T/C [12]: 12%
viability, T/C (second compound 0.03 µM, first compound 0.00316 µM): 97.9%
viability, T/C (second compound 0.03 µM, first compound 0.01 µM): 58.2%
viability, T/C [13]: 15.4%
viability, T/C [14]: 12.6%
viability, T/C [15]: 12.6%
viability, T/C [16]: 11.5%
viability, T/C (second compound 0.0949 µM, first compound 0.00316 µM): 102%
viability, T/C (second compound 0.0949 µM, first compound 0.01 µM): 63.8%
viability, T/C [17]: 20.7%
viability, T/C [18]: 9.33%
viability, T/C [19]: 11.3%
viability, T/C [20]: 7.79%
viability, T/C (second compound 0.3 µM, first compound 0.00316 µM): 73%
viability, T/C (second compound 0.3 µM, first compound 0.01 µM): 80.2%
viability, T/C [21]: 29.2%
viability, T/C [22]: 9.97%
viability, T/C [23]: 9.95%
viability, T/C [24]: 11.2%
